According to ChEMBL document CHEMBL4251555, “Synthesis, antitumor evaluation and microarray study of some new pyrazolo[3,4-d][1,2,3]triazine derivatives” (Eur J Med Chem, 2017):

Experiments:
[1] = system: Huh-7; assay: Cytotoxicity against human HuH7 cells after 48 hrs by resazurin assay; type: functional, cell-based; details: Huh-7, 48 h
[2] = system: PANC-1; assay: Cytotoxicity against human PANC1 cells after 48 hrs by resazurin assay; type: functional, cell-based; details: PANC-1, 48 h
[3] = Selectivity index, ratio of IC50 for human RPE1 cells to IC50 for human HuH7 cells; type: toxicity; details: RPE1 cells versus HuH7 cells, read-out: Ratio IC50
[4] = system: CCRF-CEM; assay: Cytotoxicity against human CCRF-CEM cells after 48 hrs by resazurin assay; type: functional, cell-based
[5] = Selectivity index, ratio of IC50 for human RPE1 cells to IC50 for human CCRF-CEM cells; type: toxicity; details: RPE1 cells versus CCRF-CEM cells, read-out: Ratio IC50
[6] = Selectivity index, ratio of IC50 for human RPE1 cells to IC50 for human PANC1 cells; type: toxicity; details: RPE1 cells versus PANC1 cells, read-out: Ratio IC50
[7] = system: TERT-RPE1; assay: Cytotoxicity against human RPE1 cells after 48 hrs by resazurin assay; type: cell-based; details: RPE-1, 48 h
[8] = system: Huh-7; assay: Upregulation of UGT2B15 gene expression in human HuH7 cells after 48 hrs by micro-array analysis relative to control; type: functional
[9] = system: Huh-7; assay: Induction of apoptosis in human HuH7 cells assessed as caspase-3/7 activation after 24 hrs by Caspase-Glo assay; type: functional, cell-based
[10] = system: Huh-7; assay: Upregulation of MUCDH1 gene expression in human HuH7 cells after 48 hrs by micro-array analysis relative to control; type: functional
[11] = system: Huh-7; assay: Upregulation of SLC26A3 gene expression in human HuH7 cells after 48 hrs by micro-array analysis relative to control; type: functional
[12] = system: Huh-7; assay: Downregulation of GIP3 gene expression in human HuH7 cells after 48 hrs by micro-array analysis relative to control; type: functional
[13] = system: Huh-7; assay: Upregulation of UGT2B7 gene expression in human HuH7 cells after 48 hrs by micro-array analysis relative to control; type: functional
[14] = system: Huh-7; assay: Upregulation of UGT2B17 gene expression in human HuH7 cells after 48 hrs by micro-array analysis relative to control; type: functional
[15] = system: Huh-7; assay: Downregulation of TAGLN gene expression in human HuH7 cells after 48 hrs by micro-array analysis relative to control; type: functional
[16] = system: PANC-1; assay: Induction of apoptosis in human PANC1 cells assessed as caspase-3/7 activation after 24 hrs by Caspase-Glo assay; type: functional, cell-based
[17] = system: Huh-7; assay: Downregulation of IFI27 gene expression in human HuH7 cells after 48 hrs by micro-array analysis relative to control; type: functional
[18] = system: Huh-7; assay: Downregulation of SOCS2 gene expression in human HuH7 cells after 48 hrs by micro-array analysis relative to control; type: functional
[19] = system: Huh-7; assay: Downregulation of THBS1 gene expression in human HuH7 cells after 48 hrs by micro-array analysis relative to control; type: functional
[20] = system: Huh-7; assay: Upregulation of UGT1A1 gene expression in human HuH7 cells after 48 hrs by micro-array analysis relative to control; type: functional
[21] = system: Huh-7; assay: Upregulation of DNASE1 gene expression in human HuH7 cells after 48 hrs by micro-array analysis relative to control; type: functional
[22] = system: Huh-7; assay: Downregulation of FSCN1 gene expression in human HuH7 cells after 48 hrs by micro-array analysis relative to control; type: functional

SMILES: CCOc1ccc(NC(=O)/C(C#N)=C(\NC23CC4CC(CC(C4)C2)C3)SC)cc1
- IC50 [1]: 10 µM
- IC50 [2]: 23.7 µM
- selectivity ratio [3]: > 10
- IC50 [4]: 17.6 µM
- selectivity ratio [5]: > 5.7
- selectivity ratio [6]: > 4.2
- IC50 [7]: > 100 µM

SMILES: CCOc1ccc(NC(=O)c2c(N)n[nH]c2NC)cc1
- IC50 [1]: 21.8 µM
- IC50 [2]: 31 µM
- selectivity ratio [3]: > 4.6
- IC50 [4]: 7.9 µM
- selectivity ratio [5]: > 12.7
- selectivity ratio [6]: > 3.2
- IC50 [7]: > 100 µM

SMILES: C=CCNc1[nH]nc(N)c1C(=O)Nc1ccc(OCC)cc1
- IC50 [1]: 22 µM
- IC50 [2]: 30.8 µM
- selectivity ratio [3]: > 4.5
- IC50 [4]: 6.56 µM
- selectivity ratio [5]: > 15.2
- selectivity ratio [6]: > 3.2
- IC50 [7]: > 100 µM

SMILES: CCOc1ccc(NC(=O)CC#N)cc1
- IC50 [1]: 21.5 µM
- IC50 [2]: 43.9 µM
- selectivity ratio [3]: > 4.6
- IC50 [4]: 14.1 µM
- selectivity ratio [5]: > 7.1
- selectivity ratio [6]: > 2.3
- IC50 [7]: > 100 µM

SMILES: CCOc1ccc(NC(=O)/C(C#N)=C(\Nc2ccccc2)SC)cc1
- IC50 [1]: 25.3 µM
- IC50 [2]: 49.3 µM
- selectivity ratio [3]: > 4
- IC50 [4]: 20.3 µM
- selectivity ratio [5]: > 4.9
- selectivity ratio [6]: > 2
- IC50 [7]: > 100 µM

SMILES: COc1cccc2c1C(=O)c1c(O)c3c(c(O)c1C2=O)C[C@@](O)(C(=O)CO)C[C@@H]3O[C@H]1C[C@H](N)[C@H](O)[C@H](C)O1 [DOXORUBICIN]
- IC50 [1]: 5.43 µM
- IC50 [7]: 14 µM

SMILES: CCNc1[nH]nc2nnn(-c3ccc(OCC)cc3)c(=O)c12
- IC50 [1]: 14.4 µM
- IC50 [2]: 16.1 µM
- selectivity ratio [3]: > 6.9
- IC50 [4]: 15.2 µM
- selectivity ratio [5]: > 6.6
- selectivity ratio [6]: > 6.2
- IC50 [7]: > 100 µM

SMILES: C=CCNc1[nH]nc2nnn(-c3ccc(OCC)cc3)c(=O)c12
- fold change (FC) [8]: >=3 - 6
- Activity [9]: Dose-dependent effect
- fold change (FC) [10]: >=3 - 6
- fold change (FC) [11]: >=3 - 6
- IC50 [1]: 4.94 µM
- IC50 [2]: 13.3 µM
- fold change (FC) [12]: >4
- fold change (FC) [13]: >=3 - 6
- fold change (FC) [14]: >=3 - 6
- fold change (FC) [15]: >4
- selectivity ratio [3]: > 20.3
- IC50 [4]: 4.73 µM
- Activity [16]: Dose-dependent effect
- fold change (FC) [17]: >4
- selectivity ratio [5]: > 21.2
- fold change (FC) [18]: >4
- fold change (FC) [19]: >4
- selectivity ratio [6]: > 7.5
- fold change (FC) [20]: >=3 - 6
- fold change (FC) [21]: >=3 - 6
- IC50 [7]: > 100 µM
- fold change (FC) [22]: >4

SMILES: CCOc1ccc(-n2nnc3n[nH]c(Nc4ccccc4)c3c2=O)cc1
- IC50 [1]: 9.39 µM
- IC50 [2]: 13.1 µM
- selectivity ratio [3]: > 10.6
- IC50 [4]: 5.92 µM
- selectivity ratio [5]: > 16.9
- selectivity ratio [6]: > 7.6
- IC50 [7]: > 100 µM

SMILES: CCOc1ccc(-n2nnc3n[nH]c(NC45CC6CC(CC(C6)C4)C5)c3c2=O)cc1
- IC50 [1]: 23.2 µM
- IC50 [2]: 4.41 µM
- selectivity ratio [3]: > 4.3
- IC50 [4]: 15.6 µM
- selectivity ratio [5]: > 6.4
- selectivity ratio [6]: > 22.7
- IC50 [7]: > 100 µM

SMILES: C=CCN/C(SC)=C(/C#N)C(=O)Nc1ccc(OCC)cc1
- Activity [9]: Dose-dependent effect
- IC50 [1]: 8.85 µM
- IC50 [2]: 21.8 µM
- selectivity ratio [3]: > 11.3
- IC50 [4]: 18.5 µM
- Activity [16]: Dose-dependent effect
- selectivity ratio [5]: > 5.4
- selectivity ratio [6]: > 4.6
- IC50 [7]: > 100 µM

SMILES: CCOc1ccc(NC(=O)c2c(N)n[nH]c2NC23CC4CC(CC(C4)C2)C3)cc1
- IC50 [1]: 10.6 µM
- IC50 [2]: 13.2 µM
- selectivity ratio [3]: 7.6
- IC50 [4]: 15.2 µM
- selectivity ratio [5]: 5.3
- selectivity ratio [6]: 6.2
- IC50 [7]: 81.2 µM

SMILES: CCN/C(SC)=C(/C#N)C(=O)Nc1ccc(OCC)cc1
- IC50 [1]: 16.4 µM
- IC50 [2]: 41.6 µM
- selectivity ratio [3]: > 6.1
- IC50 [4]: 9.89 µM
- selectivity ratio [5]: > 10.1
- selectivity ratio [6]: > 2.4
- IC50 [7]: > 100 µM

SMILES: CCNc1[nH]nc(N)c1C(=O)Nc1ccc(OCC)cc1
- IC50 [1]: 27 µM
- IC50 [2]: 14.8 µM
- selectivity ratio [3]: > 3.7
- IC50 [4]: 14 µM
- selectivity ratio [5]: > 7.2
- selectivity ratio [6]: > 6.8
- IC50 [7]: > 100 µM

SMILES: CCOc1ccc(-n2nnc3n[nH]c(NC)c3c2=O)cc1
- Activity [9]: Dose-dependent effect
- IC50 [1]: 7.01 µM
- IC50 [2]: 9.92 µM
- selectivity ratio [3]: > 14.3
- IC50 [4]: 12.4 µM
- Activity [16]: Dose-dependent effect
- selectivity ratio [5]: > 8.1
- selectivity ratio [6]: > 10.1
- IC50 [7]: > 100 µM

SMILES: CCOc1ccc(NC(=O)/C(C#N)=C(\NC)SC)cc1
- Activity [9]: Dose-dependent effect
- IC50 [1]: 5.78 µM
- IC50 [2]: 26.4 µM
- selectivity ratio [3]: > 17.3
- IC50 [4]: 9.94 µM
- Activity [16]: Dose-dependent effect
- selectivity ratio [5]: > 10.1
- selectivity ratio [6]: > 3.8
- IC50 [7]: > 100 µM

SMILES: CCOc1ccc(NC(=O)c2c(N)n[nH]c2Nc2ccccc2)cc1
- IC50 [1]: 4.32 µM
- IC50 [2]: 21 µM
- selectivity ratio [3]: 15.7
- IC50 [4]: 4.47 µM
- selectivity ratio [5]: 15.1
- selectivity ratio [6]: 3.2
- IC50 [7]: 67.8 µM
